“And” between values parts separate entries of the source, which are not always exact repeats. Identical values can stand only once.
What was measured:
Moulds = test: Preservative action in cosmetic products (Antimicrobial Effectiveness Testing USP 24th Edition), moulds; type: cell-based, Aspergillus niger; conditions: Example 10, oil in water emulsion with non-ionic surfactant, 0.2 g/kg
Source text: (§1) (1) Determination of Preservative Action in Cosmetic Products. […] This assay consists of the contamination of the protecting formulations with an inoculum mixture of 10^8 cfu/ml concentration, for each of the micro-organisms, and the determination of the number of viable cells in time. This inoculum mixture is composed of the following microorganisms: [table] The cosmetic composition to be analysed is divided into sterile containers with 50 g of product for each flask. Each container is inoculated with 0.5 ml of inoculum (10^8 cfu/ml). The target concentration is 10^6 cfu/ml, approximately. All the containers are kept at a temperature between 20-25° C. and are protected from light. The level of the microbial contamination is checked at 0 hours, 7 days, 14 days and 28 days. The number of colonies is evaluated by dilution in buffer peptone with the appropriate neutraliser agent of the preservative. The culture media used for counting the microorganisms are: […] (2) Determination of Preservative Action in Chicken Breast. Process of Preparation • 1. Fresh chicken breast was diced to pieces • 2. Brine (8.70% sodium chloride and 4.35% tripolyphosphate in water) was added to the fresh chicken in an amount of 11.5 g brine per 88.5 g meat in the control preparation and 11.5 g brine and 88.4 g meat in the preparations treated with preservative. • 3. Brine and meat were mixed during 15 minutes, in the preparations treated with preservative the preservative was added after 14 minutes in an amount of 0.2 g/kg. • 4. Vacuum refrigerate tumbling was made during 30 minutes. • 5. Samples were vacuum-packed in sterile bags and they were cooked at 85° C. for 30 minutes. • 6. The cooked chicken was refrigerated at 4° C. • 7. The cooked chicken was diced in irregular shapes. • 8. Then, the nuggets were stored at 10° C. in sterile vacuum-packed bags. Analysis

Yeast = test: Preservative action in cosmetic products (Antimicrobial Effectiveness Testing USP 24th Edition), yeast; type: cell-based, Candida albicans; conditions: Example 10, oil in water emulsion with non-ionic surfactant, 0.2 g/kg
Source text: as §1

Aerobes = test: Preservative action in cosmetic products (Antimicrobial Effectiveness Testing USP 24th Edition), aerobes; type: cell-based; conditions: Example 10, oil in water emulsion with non-ionic surfactant, 0.2 g/kg
Source text: as §1

aerobic total count = test: Preservative action in cooked chicken breast, aerobic total count; type: cell-based; conditions: Example 9, cooked chicken, 0.2 g/kg
Method: (2) Determination of Preservative Action in Chicken Breast. Process of Preparation • 1. Fresh chicken breast was diced to pieces • 2. Brine (8.70% sodium chloride and 4.35% tripolyphosphate in water) was added to the fresh chicken in an amount of 11.5 g brine per 88.5 g meat in the control preparation and 11.5 g brine and 88.4 g meat in the preparations treated with preservative. • 3. Brine and meat were mixed during 15 minutes, in the preparations treated with preservative the preservative was added after 14 minutes in an amount of 0.2 g/kg. • 4. Vacuum refrigerate tumbling was made during 30 minutes. • 5. Samples were vacuum-packed in sterile bags and they were cooked at 85° C. for 30 minutes. • 6. The cooked chicken was refrigerated at 4° C. • 7. The cooked chicken was diced in irregular shapes. • 8. Then, the nuggets were stored at 10° C. in sterile vacuum-packed bags. Analysis […] Dilutions were made in buffered peptone water. Tryptone Soya Agar was harvested with each dilution and incubated at 35° C. for 48 hours. The mean value in log cfu/g of three samples per treatment and day of analysis was calculated.

[1] = day 56 (8 weeks), mean of triplicate

CC(=O)O.CCCCCCCCCCCC(=O)N[C@@H](CCCN=C(N)N)C(=O)OCC [LAE Ac, LAE acetate]
Moulds count (Moulds; 0 days): 4.1 log cfu/g
Moulds count (Moulds; 7 days): <2.0 log cfu/g
Moulds count (Moulds; 14 days): <2.0 log cfu/g
Yeast count (Yeast; 0 days): 5.3 log cfu/g
Yeast count (Yeast; 7 days): 2.1 log cfu/g
Yeast count (Yeast; 14 days): <2.0 log cfu/g
Aerobes count (Aerobes; 0 days): 6.0 log cfu/g
Aerobes count (Aerobes; 7 days): 2.5 log cfu/g
Aerobes count (Aerobes; 14 days): <2.0 log cfu/g
aerobic total count, mean (aerobic total count; day 0, mean of triplicate): 2.0 log cfu/g
aerobic total count (aerobic total count; day 0, samples 1-3): 2.0 log cfu/g
aerobic total count, mean (aerobic total count; day 7, mean of triplicate): 2.0 log cfu/g
aerobic total count (aerobic total count; day 7, samples 1-3): 2.0 log cfu/g
aerobic total count, mean (aerobic total count; day 14, mean of triplicate): 2.0 log cfu/g
aerobic total count (aerobic total count; day 14, samples 1-3): 2.0 log cfu/g
aerobic total count, mean (aerobic total count; day 21, mean of triplicate): 2.1 log cfu/g
aerobic total count (aerobic total count; day 21, samples 1-3): 2.1 log cfu/g and 2.3 log cfu/g and 2.0 log cfu/g
aerobic total count, mean (aerobic total count; day 28, mean of triplicate): 2.5 log cfu/g
aerobic total count (aerobic total count; day 28, samples 1-3): 3.0 log cfu/g and 2.1 log cfu/g and 2.3 log cfu/g
aerobic total count, mean (aerobic total count; day 35, mean of triplicate): 2.5 log cfu/g
aerobic total count (aerobic total count; day 35, samples 1-3): 2.3 log cfu/g and 2.8 log cfu/g and 2.5 log cfu/g
aerobic total count, mean (aerobic total count; day 42, mean of triplicate): 3.1 log cfu/g
aerobic total count (aerobic total count; day 42, samples 1-3): 3.1 log cfu/g and 2.8 log cfu/g and 3.3 log cfu/g
aerobic total count, mean (aerobic total count; day 49, mean of triplicate): 3.4 log cfu/g
aerobic total count (aerobic total count; day 49, samples 1-3): 3.3 log cfu/g and 3.0 log cfu/g and 3.9 log cfu/g
aerobic total count, mean (aerobic total count; [1]): 3.9 log cfu/g
aerobic total count (aerobic total count; day 56, samples 1-3): 3.8 log cfu/g and 4.0 log cfu/g and 3.9 log cfu/g

CCCCCCCCCCCC(=O)N[C@@H](CCCN=C(N)N)C(=O)OCC.N[C@@H](CCC(=O)O)C(=O)O [LAE Gl, LAE glutamate]
Moulds count (Moulds; 0 days): 4.1 log cfu/g
Moulds count (Moulds; 7 days): <2.0 log cfu/g
Moulds count (Moulds; 14 days): <2.0 log cfu/g
Yeast count (Yeast; 0 days): 5.6 log cfu/g
Yeast count (Yeast; 7 days): 2.4 log cfu/g
Yeast count (Yeast; 14 days): <2.0 log cfu/g
Aerobes count (Aerobes; 0 days): 6.1 log cfu/g
Aerobes count (Aerobes; 7 days): 2.3 log cfu/g
Aerobes count (Aerobes; 14 days): <2.0 log cfu/g
aerobic total count, mean (aerobic total count; day 0, mean of triplicate): 2.0 log cfu/g
aerobic total count (aerobic total count; day 0, samples 1-3): 2.0 log cfu/g
aerobic total count, mean (aerobic total count; day 7, mean of triplicate): 2.0 log cfu/g
aerobic total count (aerobic total count; day 7, samples 1-3): 2.0 log cfu/g
aerobic total count, mean (aerobic total count; day 14, mean of triplicate): 2.0 log cfu/g
aerobic total count (aerobic total count; day 14, samples 1-3): 2.0 log cfu/g
aerobic total count, mean (aerobic total count; day 21, mean of triplicate): 2.1 log cfu/g
aerobic total count (aerobic total count; day 21, samples 1-3): 2.1 log cfu/g and 2.2 log cfu/g and 2.0 log cfu/g
aerobic total count, mean (aerobic total count; day 28, mean of triplicate): 2.3 log cfu/g
aerobic total count (aerobic total count; day 28, samples 1-3): 2.5 log cfu/g and 2.1 log cfu/g and 2.2 log cfu/g
aerobic total count, mean (aerobic total count; day 35, mean of triplicate): 2.4 log cfu/g
aerobic total count (aerobic total count; day 35, samples 1-3): 2.3 log cfu/g and 2.5 log cfu/g
aerobic total count, mean (aerobic total count; day 42, mean of triplicate): 2.7 log cfu/g
aerobic total count (aerobic total count; day 42, samples 1-3): 2.6 log cfu/g and 2.8 log cfu/g
aerobic total count, mean (aerobic total count; day 49, mean of triplicate): 3.2 log cfu/g
aerobic total count (aerobic total count; day 49, samples 1-3): 3.2 log cfu/g and 3.0 log cfu/g and 3.5 log cfu/g
aerobic total count, mean (aerobic total count; [1]): 3.5 log cfu/g
aerobic total count (aerobic total count; day 56, samples 1-3): 3.5 log cfu/g and 3.8 log cfu/g and 3.3 log cfu/g

CC(O)C(=O)O.CCCCCCCCCCCC(=O)N[C@@H](CCCN=C(N)N)C(=O)OCC [LAE La, LAE lactate]
Moulds count (Moulds; 0 days): 4.2 log cfu/g
Moulds count (Moulds; 7 days): <2.0 log cfu/g
Moulds count (Moulds; 14 days): <2.0 log cfu/g
Yeast count (Yeast; 0 days): 5.4 log cfu/g
Yeast count (Yeast; 7 days): 2.2 log cfu/g
Yeast count (Yeast; 14 days): <2.0 log cfu/g
Aerobes count (Aerobes; 0 days): 6.1 log cfu/g
Aerobes count (Aerobes; 7 days): 2.2 log cfu/g
Aerobes count (Aerobes; 14 days): <2.0 log cfu/g
aerobic total count, mean (aerobic total count; day 0, mean of triplicate): 2.0 log cfu/g
aerobic total count (aerobic total count; day 0, samples 1-3): 2.0 log cfu/g
aerobic total count, mean (aerobic total count; day 7, mean of triplicate): 2.0 log cfu/g
aerobic total count (aerobic total count; day 7, samples 1-3): 2.0 log cfu/g
aerobic total count, mean (aerobic total count; day 14, mean of triplicate): 2.0 log cfu/g
aerobic total count (aerobic total count; day 14, samples 1-3): 2.0 log cfu/g
aerobic total count, mean (aerobic total count; day 21, mean of triplicate): 2.2 log cfu/g
aerobic total count (aerobic total count; day 21, samples 1-3): 2.1 log cfu/g and 2.4 log cfu/g and 2.0 log cfu/g
aerobic total count, mean (aerobic total count; day 28, mean of triplicate): 2.3 log cfu/g
aerobic total count (aerobic total count; day 28, samples 1-3): 2.6 log cfu/g and 2.1 log cfu/g and 2.3 log cfu/g
aerobic total count, mean (aerobic total count; day 35, mean of triplicate): 2.7 log cfu/g
aerobic total count (aerobic total count; day 35, samples 1-3): 2.8 log cfu/g and 2.5 log cfu/g
aerobic total count, mean (aerobic total count; day 42, mean of triplicate): 3.3 log cfu/g
aerobic total count (aerobic total count; day 42, samples 1-3): 3.1 log cfu/g and 3.5 log cfu/g and 3.3 log cfu/g
aerobic total count, mean (aerobic total count; day 49, mean of triplicate): 3.6 log cfu/g
aerobic total count (aerobic total count; day 49, samples 1-3): 3.3 log cfu/g and 3.6 log cfu/g and 3.9 log cfu/g
aerobic total count, mean (aerobic total count; [1]): 4.1 log cfu/g
aerobic total count (aerobic total count; day 56, samples 1-3): 4.2 log cfu/g and 4.0 log cfu/g and 3.9 log cfu/g

Reference: patent US10130830B2, “Preservative systems comprising cationic surfactants” (Laboratorios Miret, S.A., priority 2005, dated 2018)
